Measured values reported in patent US20090149417A1, “Methods and compositions for the treatment of cancer using benzopyrone-type PARP inhibitors” (priority 2007, published 2009).

Tested on: Colo357FG
Experiment: Luciferase-expressing pancreatic cancer orthotopic nude mouse model
Assay type: in vivo
Procedure: The therapeutic efficacy of IIIg on tumor growth and survival is evaluated in different luciferase-expressing pancreatic cancer orthotopic nude mouse models using an IVIS100 Imaging System, allowing a quantitative real time monitoring of tumor growth.
Mice are monitored daily for signs of toxicity including weight loss, diarrhea, inactivity, and general appearance.
Three days after the orthotopic implantation of 1.0×10^6 COL0357FG tumor cells in 50 μL of HBSS, when bioluminescence imaging confirmed that tumors are well established, in one experiment, mice are randomly allocated into three groups (n=10 mice per group) to receive one of the following treatments. (a) Vehicle solution for 50 μL of sterile saline; (b) IIIg (25 mg/kg) biweekly i.p.; (c) IIIg (100 mg/kg) biweekly i.p. Treatments are continued for 4 weeks. All mice are weighed weekly and observed for tumor growth. Tumor diameter is assessed with a Vernier caliper, and tumor volume (mm^3) is calculated as d^2×D/2, wherein d and D represent the shortest and longest diameters, respectively. Bulky disease is considered present when tumor burden is prominent in the mouse abdomen (tumor volume, >=2,000 mm^3).
In another experiment, mice are randomly allocated into four groups (n=10 mice per group) to receive one of the following treatments. (a) Vehicle solution for 50 μL of sterile saline; (b) IIIg (200 mg/kg) once weekly i.p.; (c) IIIg (100 mg/kg) biweekly i.p; (d) IIIg (40 mg/kg) once daily i.p. Treatments are continued for 4 weeks. All mice are weighed weekly and observed for tumor growth. Tumor diameter is assessed with a Vernier caliper, and tumor volume (mm^3) is calculated as d^2×D/2, wherein d and D represent the shortest and longest diameters, respectively. Bulky disease is considered present when tumor burden is prominent in the mouse abdomen (tumor volume, >=2,000 mm^3).
In another experiment, mice are randomly allocated into eight groups to receive one of the following treatments via oral or ip administration. (a) Vehicle solution for 50 μL of sterile saline (oral); (b) Gemcitabine (25 mg/kg) biweekly for 4 weeks (ip); (c) IIIg (200 mg/kg) once weekly (oral); (d) IIIg (200 mg/kg) biweekly (oral); (e) IIIg (200 mg/kg) once daily (oral); (f) IIIg (400 mg/kg) once weekly (oral); (g) IIIg (400 mg/kg) biweekly (oral); (h) IIIg (400 mg/kg) once daily (oral). In all treatments, IIIg is given orally. Treatments are continued for 4 weeks. All mice are weighed weekly and observed for tumor growth. Tumor diameter is assessed with a Vernier caliper, and tumor volume (mm^3) is calculated as d^2×D/2, wherein d and D represent the shortest and longest diameters, respectively. Bulky disease is considered present when tumor burden is prominent in the mouse abdomen (tumor volume, >=2,000 mm^3).
When at least 6 of 10 mice in a treatment group presented with bulky disease, the median survival duration for that group is considered to be reached. At the median survival duration of the control group, the tumor growth in mice in all groups is evaluated using the bioluminescence emitted by the tumor cells. Bioluminescence imaging is conducted using a cryogenically cooled IVIS 100 imaging system coupled to a data acquisition computer running Living Image software (Xenogen). The mice are sacrificed by carbon dioxide inhalation when evidence of advanced bulky disease is present. The day of sacrifice is considered the day of death for survival evaluation.
Three days after the orthotopic implantation of 1.0×10^6 COL0357FG tumor cells in 50 μL of HBSS, when bioluminescence imaging confirmed that tumors are well established, mice are randomly allocated into four groups to receive one of the following treatments: (a) Vehicle solution for 50 μL of sterile saline; (b) IIIg (400 mg/kg) once daily for 4 weeks [(QD5+R2)×4]; (c) oxaliplatin (10 mg/kg) biweekly for 4 weeks (ip); (d) combination of IIIg (400 mg/kg) once daily for 4 weeks [(QD5+R2)×4] with oxaliplatin (10 mg/kg biweekly, ip). […]

[1] = intraperitoneal injection, 200 mg/kg QW×4
[2] = oral, 400 mg/kg [QD5+R2]×4, compared to no treatment and standard gemcitabine treatment

Structure (SMILES): O=c1ccc2c(I)c([N+](=O)[O-])ccc2o1 [IIIg, 5-iodo-6-nitro-benzopyrone]
- Signs of toxicity (100 mg/kg/day 2/week×4 weeks): without signs of toxicity
- Survival (100 mg/kg/day 2/week×4 weeks): prolongs survival
- Tumor burden (100 mg/kg/day 2/week×4 weeks): significantly reduces the tumor burden
- In vivo antitumor effect, comparison of schedules (200 mg/kg/week once a week in comparison with 2 times/week or daily schedule, preliminary results): greater in vivo antitumor effect
- Anti-tumor activity of the combination (IIIg 400 mg/kg once daily [(QD5+R2)×4] with oxaliplatin 10 mg/kg biweekly, ip): potent synergistic anti-tumor activity
- Survival [1]: prolongs the survival
- Tumor burden [1]: potently reduces the tumor burden
- Survival [2]: prolongs survival
- Tumor burden [2]: significantly reduces the tumor burden
